We go through 28 compounds from US8969335B2, “Benzonitrile derivatives as kinase inhibitors” (MERCK PATENT GmbH, priority 2011, dated 2015).

In general, IC50 refers to the concentration needed to halve the response being measured.

One test concerns the target IKKε (Homo sapiens (Human), UniProt Q14164). Briefly: IKKε kinase assay (384-well flashplate assay). The format is biochemical. The following applies: 1 nM IKKε, 10 μM ATP, 30° C., 2 hours; read-out: IKKε enzyme assay IC50. The protocol:
Test for the Inhibition of IKKε
IKKε—Kinase Assay (IKKepsilon)
The kinase assay is performed as 384-well flashplate assay (for example for Topcount measurement).
1 nM IKKε, 800 nM biotinylated IκBα(19-42) peptide (Biotin-C6-C6-[…]) and 10 μM ATP (spiked with 0.3 μCi of ^33P-ATP/well) are incubated at 30° C. for 2 hours in a total volume of 50 μl (10 mM MOPS, 10 mM Mg acetate, 0.1 mM EGTA, 1 mM dithiothreitol, 0.02% of Brij35, 0.1% of BSA, 0.1% of BioStab, pH 7.5) with or without test compound. The reaction is stopped using 25 μl of 200 mM EDTA. After 30 min at room temperature, the liquid is removed, and each well is washed three times with 100 μl of 0.9% sodium chloride solution. Non-specific reaction is determined in the presence of 3 μM MSC2119074 (BX-795). The radioactivity is measured using a Topcount (PerkinElmer). The results (for example IC50 values) are calculated using program tools provided by the IT Department (for example AssayExplorer, Symyx).

Test [1] deals with TANK binding kinase (TBK1) (Homo sapiens (Human), UniProt Q9UHD2). Briefly: TBK1 enzyme assay (384-well flashplate kinase assay). The format is biochemical. The following applies: 0.6 nM TBK1, 10 μM ATP, 30° C., 120 min.
Sequence of TANK binding kinase (TBK1) (Q9UHD2 whole entry): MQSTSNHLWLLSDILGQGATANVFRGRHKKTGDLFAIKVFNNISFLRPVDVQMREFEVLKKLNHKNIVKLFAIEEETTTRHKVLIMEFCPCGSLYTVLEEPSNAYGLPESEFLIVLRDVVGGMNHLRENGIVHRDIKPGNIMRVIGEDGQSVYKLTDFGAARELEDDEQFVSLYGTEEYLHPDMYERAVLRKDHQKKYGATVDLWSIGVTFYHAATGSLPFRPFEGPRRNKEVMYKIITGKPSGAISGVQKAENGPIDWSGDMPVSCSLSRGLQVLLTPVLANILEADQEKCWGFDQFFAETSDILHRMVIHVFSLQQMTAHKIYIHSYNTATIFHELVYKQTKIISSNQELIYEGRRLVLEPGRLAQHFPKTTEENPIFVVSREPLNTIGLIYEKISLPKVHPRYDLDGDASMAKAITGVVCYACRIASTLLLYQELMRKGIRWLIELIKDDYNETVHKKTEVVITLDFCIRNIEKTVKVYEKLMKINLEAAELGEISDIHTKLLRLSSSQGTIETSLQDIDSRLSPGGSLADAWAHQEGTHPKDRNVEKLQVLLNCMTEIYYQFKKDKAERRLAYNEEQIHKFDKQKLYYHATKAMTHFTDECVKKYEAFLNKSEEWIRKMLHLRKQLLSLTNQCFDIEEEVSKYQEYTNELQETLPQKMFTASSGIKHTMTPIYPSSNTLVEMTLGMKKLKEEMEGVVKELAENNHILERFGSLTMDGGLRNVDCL
Procedure: Test for the Inhibition of TBK1
0.6 nM TANK binding kinase (TBK1), 800 nM biotinylated MELK-derived peptide (Biotin-Ah-Ah-[sequence]) and 10 μM ATP (spiked with 0.25 μCi of ^33P-ATP/well) are incubated at 30° C. for 120 min in a total volume of 50 μl (10 mM MOPS, 10 mM Mg acetate, 0.1 mM EGTA, 1 mM DTT, 0.02% of Brij35, 0.1% of BSA, pH 7.5) with or without test compound. The reaction is stopped with 25 μl of 200 mM EDTA. After 30 min at room temperature, the liquid is removed, and each well is washed three times with 100 μl of 0.9% sodium chloride solution. Non-specific reaction is measured in the presence of 100 nM staurosporine. The radioactivity is measured in a Topcount (PerkinElmer).

Sequence of IKKε (Q14164 whole entry): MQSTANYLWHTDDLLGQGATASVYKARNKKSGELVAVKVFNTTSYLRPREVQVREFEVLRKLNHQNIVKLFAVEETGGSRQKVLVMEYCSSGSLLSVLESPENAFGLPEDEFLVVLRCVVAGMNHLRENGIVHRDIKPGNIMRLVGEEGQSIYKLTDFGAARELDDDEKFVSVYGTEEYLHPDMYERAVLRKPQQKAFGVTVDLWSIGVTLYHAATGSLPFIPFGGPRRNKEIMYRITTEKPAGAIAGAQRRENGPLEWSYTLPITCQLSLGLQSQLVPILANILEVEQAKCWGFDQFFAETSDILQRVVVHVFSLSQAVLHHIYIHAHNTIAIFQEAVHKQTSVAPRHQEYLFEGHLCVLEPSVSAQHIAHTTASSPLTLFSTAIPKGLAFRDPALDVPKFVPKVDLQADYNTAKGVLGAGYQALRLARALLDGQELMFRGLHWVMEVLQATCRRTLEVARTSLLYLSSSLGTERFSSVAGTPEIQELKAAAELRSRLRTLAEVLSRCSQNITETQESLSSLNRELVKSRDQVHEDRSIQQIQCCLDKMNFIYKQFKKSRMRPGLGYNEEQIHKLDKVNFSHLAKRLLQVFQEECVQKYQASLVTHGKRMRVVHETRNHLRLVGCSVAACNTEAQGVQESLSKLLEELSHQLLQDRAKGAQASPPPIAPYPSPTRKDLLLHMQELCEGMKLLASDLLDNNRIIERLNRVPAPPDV

For the compound `N#Cc1cc(-c2ccnc(Nc3cnn(CC(F)F)c3)n2)ccc1OC1CCOCC1` [Compound A44, 5-{2-[1-(2,2-Difluoroethyl)-1H-pyrazol-4-ylamino]pyrimidin-4-yl}-2-(tetrahydropyran-4-yloxy)benzonitrile], the IC50 on IKKε came out at 10 nM; in test [1], 5 nM.

In the case of `N#Cc1cc(-c2ccnc(Nc3cnn(CCn4cccn4)c3)c2)ccc1OC1CCOCC1` [Compound A38, 5-{2-[1-(2-Pyrazol-1-ylethyl)-1H-pyrazol-4-ylamino]pyridin-4-yl}-2-(tetrahydropyran-4-yloxy)benzonitrile], the IC50 on IKKε was found to be 320 nM; in test [1], 460 nM.

Turning to `N#Cc1cc(-c2ccnc(Nc3nccnc3CO)c2)ccc1OC1CCOCC1` [Compound A102, 5-[2-(3-hydroxymethylpyrazin-2-ylamino)pyridin-4-yl]-2-(tetrahydropyran-4-yloxy)benzonitrile], the IC50 was 430 nM at IKKε and 350 nM in test [1].

For the compound `CC(=O)N1CCC(COc2ccc(-c3ccnc(Nc4ccc(CO)cn4)c3)cc2C#N)CC1` [Compound A115, 2-(1-acetylpiperidin-4-ylmethoxy)-5-[2-(5-hydroxymethylpyridin-2-ylamino)pyridin-4-yl]benzonitrile], the IC50 at IKKε is 1100 nM; in test [1], 1500 nM.

Take `N#Cc1cc(-c2ccnc(Nc3ncccn3)c2)ccc1OC1CCOCC1` [Compound A14, 5-[2-(Pyrimidin-2-ylamino)pyridin-4-yl]-2-(tetrahydropyran-4-yloxy)benzonitrile]: the IC50 at IKKε was determined as 1200 nM; in test [1], 670 nM.

With `N#Cc1cc(-c2ccnc(Nc3ccc(CN4CC5(COC5)C4)cn3)c2)ccc1OC1CCOCC1` [Compound A88, 5-{2-[5-(2-oxa-6-azaspiro[3.3]hept-6-ylmethyl)pyridin-2-yl-amino]pyridin-4-yl}-2-(tetrahydropyran-4-yloxy)benzonitrile], the IC50 at IKKε stood at 45 nM; in test [1], 41 nM.

Consider `N#Cc1cc(-c2ccnc(Nc3cnn(CC4CCOC4)c3)c2)ccc1OC1CCOCC1` (stereo not shown) [Compound A27, 5-{2-[1-(Tetrahydrofuran-3-ylmethyl)-1H-pyrazol-4-ylamino]pyridin-4-yl}-2-(tetrahydropyran-4-yloxy)benzonitrile], for which the IC50 at IKKε came to 77 nM; in test [1] it was 85 nM.

For the compound `N#Cc1cc(-c2ccnc(Nc3cnn(C4CCNCC4)c3)c2)ccc1OC1CCOCC1` [Compound A16, 5-[2-(1-Piperidin-4-yl-1H-pyrazol-4-ylamino)pyridin-4-yl]-2-(tetrahydropyran-4-yloxy)benzonitrile], the results for the IC50 (at IKKε; in test [1]) were 7 nM and 71 nM, respectively.

For `N#Cc1cc(-c2ccnc(Nc3ccc4oc(C(N)=O)cc4c3)c2)ccc1OC1CCOCC1` [Compound A19, 5-{4-[3-Cyano-4-(tetrahydropyran-4-yloxy)phenyl]pyridin-2-ylamino}benzofuran-2-carboxamide], the IC50 at IKKε came out at 390 nM; in test [1], 1900 nM.

On to `COCCn1cc(Nc2cc(-c3ccc(OCC4CCC4)c(C#N)c3)ccn2)cn1` [Compound A110, 2-cyclobutylmethoxy-5-{2-[1-(2-methoxyethyl)-1H-pyrazol-4-ylamino]-pyridin-4-yl}benzonitrile], for which the 50% inhibitory concentration (IC50) at IKKε amounted to 82 nM; in test [1] it was 490 nM.

Take `N#Cc1cc(-c2ccnc(Nc3ccc(C(N)=O)cn3)c2)ccc1OC1CCOCC1` [Compound A37, 6-{4-[3-Cyano-4-(tetrahydropyran-4-yloxy)phenyl]pyridin-2-ylamino}nicotinamide]: the IC50 at IKKε is 21 nM; in test [1] it was 32 nM.

In the case of `N#Cc1cc(-c2ccnc(Nc3ccc(C(F)(F)F)cn3)c2)ccc1OC1CCOCC1` [Compound A13, 2-(Tetrahydropyran-4-yloxy)-5-[2-(5-trifluoromethylpyridin-2-ylamino)pyridin-4-yl]-benzonitrile], the IC50 is 530 nM at IKKε and 310 nM in test [1].

`N#Cc1cc(-c2ccnc(Nc3cc(CO)ccn3)n2)ccc1OC1CCOCC1` [Compound A70, 5-[2-(4-hydroxymethylpyridin-2-ylamino)pyrimidin-4-yl]-2-(tetrahydropyran-4-yloxy)benzonitrile]: the IC50 stood at 140 nM at IKKε and 180 nM in test [1].

For the compound `N#Cc1cc(-c2ccnc(Nc3cnn(C4CCNC4)c3)n2)ccc1OC1CCOCC1` (stereo not shown) [Compound A40, 5-[2-(1-Pyrrolidin-3-yl-1H-pyrazol-4-ylamino)pyrimidin-4-yl]-2-(tetrahydropyran-4-yloxy)benzonitrile], the IC50 was determined as 5 nM on IKKε and 7 nM in test [1].

As to `CC(C)(C)c1cc(Nc2cc(-c3ccc(OC4CCOCC4)c(C#N)c3)ccn2)on1` [Compound A31, 5-[2-(3-tert-Butylisoxazol-5-ylamino)pyridin-4-yl]-2-(tetrahydropyran-4-yloxy)benzonitrile], the IC50 at IKKε turned out to be 850 nM; in test [1], 860 nM.

`COCCn1cc(Nc2cc(-c3ccc(OCC4CCN(C(C)=O)CC4)c(C#N)c3)ccn2)cn1` [Compound A114, 2-(1-acetylpiperidin-4-ylmethoxy)-5-{2-[1-(2-methoxyethyl)-1H-pyrazol-4-ylamino]pyridin-4-yl}benzonitrile]: the IC50 is 650 nM on IKKε and 5500 nM in test [1].

For `Cn1nc(Nc2nccc(-c3ccc(OC4CCOCC4)c(C#N)c3)n2)ccc1=O` [Compound A68, 5-[2-(1-methyl-6-oxo-1,6-dihydropyridazin-3-ylamino)pyrimidin-4-yl]-2-(tetrahydropyran-4-yloxy)benzonitrile], the IC50 at IKKε stood at 200 nM; in test [1], 160 nM.

Regarding `N#Cc1cc(-c2ccnc(Nc3ccc(C4CCOCC4)nn3)c2)ccc1OC1CCOCC1` [Compound A100, 2-(tetrahydropyran-4-yloxy)-5-{2-[6-(tetrahydropyran-4-yl)pyridazin-3-yl-amino]pyridin-4-yl}benzonitrile], the IC50 on IKKε was 39 nM; in test [1], 14 nM.

In the case of `N#Cc1cc(-c2ccnc(Nc3cnn(CCn4cccn4)c3)n2)ccc1OC1CCOCC1` [Compound A43, 5-{2-[1-(2-Pyrazol-1-ylethyl)-1H-pyrazol-4-ylamino]pyrimidin-4-yl}-2-(tetrahydropyran-4-yloxy)benzonitrile], the IC50 at IKKε came to 65 nM; in test [1] it was 70 nM.

As to `N#Cc1cc(-c2ccnc(Nc3ccc(CO)cn3)c2)ccc1OC1CCOCC1` [Compound A15, 5-[2-(5-Hydroxymethylpyridin-2-ylamino)pyridin-4-yl]-2-(tetrahydropyran-4-yloxy)benzonitrile], the IC50 on IKKε worked out at 21 nM; in test [1] it was 14 nM.

Take `CC(=O)N1CCC(COc2ccc(-c3ccnc(Nc4ccc(N5CCOCC5)cn4)c3)cc2C#N)CC1` [Compound A117, 2-(1-acetylpiperidin-4-ylmethoxy)-5-[2-(5-morpholin-4-ylpyridin-2-ylamino)pyridin-4-yl]benzonitrile]: the IC50 is 610 nM at IKKε and 810 nM in test [1].

As for `N#Cc1cc(-c2ccnc(Nc3cnn(CCN4CCOCC4)c3)n2)ccc1OC1CCOCC1` [Compound A39, 5-{2-[1-(2-Morpholin-4-ylethyl)-1H-pyrazol-4-ylamino]pyrimidin-4-yl}-2-(tetrahydropyran-4-yloxy)benzonitrile], the IC50 amounted to 25 nM on IKKε and 16 nM in test [1].

In the case of `N#Cc1cc(-c2ccnc(Nc3cn[nH]c3)c2)ccc1OCC1CCC1` [Compound A109, 2-cyclobutylmethoxy-5-[2-(1H-pyrazol-4-ylamino)pyridin-4-yl]benzonitrile], the IC50 amounted to 140 nM on IKKε and 380 nM in test [1].

Turning to `N#Cc1cc(-c2ccnc(Nc3cnn(CCC4CCN(C(=O)CN)CC4)c3)c2)ccc1OC1CCOCC1` [Compound A30, 5-[2-(1-{2-[1-(2-Aminoacetyl)piperidin-4-yl]ethyl}-1H-pyrazol-4-ylamino)pyridin-4-yl]-2-(tetrahydropyran-4-yloxy)benzonitrile], the IC50 turned out to be 45 nM at IKKε and 42 nM in test [1].

For the compound `N#Cc1cc(-c2ccnc(Nc3cnn(CCC4CCNCC4)c3)n2)ccc1OC1CCOCC1` [Compound A45, 5-{2-[1-(2-Piperidin-4-ylethyl)-1H-pyrazol-4-ylamino]pyrimidin-4-yl}-2-(tetrahydropyran-4-yloxy)benzonitrile], the IC50 (on IKKε; in test [1]) was 2 nM throughout.

With `N#Cc1cc(-c2ccnc(Nc3ncc4c(n3)CCNC4)c2)ccc1OC1CCOCC1` [Compound A36, 2-(Tetrahydropyran-4-yloxy)-5-[2-(5,6,7,8-tetrahydropyrido[4,3-d]pyrimidin-2-ylamino)pyridin-4-yl]benzonitrile], the IC50 on IKKε came out at 140 nM.

Turning to `N#Cc1cc(-c2ccnc(Nc3ccc4oc(C(N)=O)cc4c3)n2)ccc1OC1CCOCC1` [Compound A42, 5-{4-[3-Cyano-4-(tetrahydropyran-4-yloxy)phenyl]pyrimidin-2-ylamino}benzofuran-2-carboxamide], the results for the IC50 (at IKKε; in test [1]) were 15 nM and 10 nM, respectively.

For the compound `N#Cc1cc(-c2ccnc(Nc3cn[nH]c3)c2)ccc1OCC1CC1` [Compound A104, 2-cyclopropylmethoxy-5-[2-(1H-pyrazol-4-ylamino)pyridin-4-yl]-benzonitrile], the IC50 was found to be 96 nM at IKKε and 460 nM in test [1].
